Drawing on patent US5482942A, “(3,4-dioxocyclobuten-1-yl)chromene, indene, and dihydronaphthalenone derivatives as smooth muscle relaxants” (American Home Products Corporation, priority 1994, dated 1996), this text covers IC50 for two compounds.

Structures are written as SMILES.

In test [1] the test system is Isolated Rat Bladder. The test can be described thus: Inhibition of contractions in isolated rat bladder strips (bladder smooth muscle relaxing activity). The settings on record: 0.5 h, 15 mM KCl-enhanced contractions, 30 min challenge, read-out: IC50 or (% Inhibition of Bladder Contraction at 30 μM). Also on record: species or system Sprague-Dawley rats. On the procedure:
Bladder smooth muscle relaxing activity of the compounds of this invention was established in accordance with standard pharmaceutically accepted test procedures in representative compounds as follows:
Sprague-Dawley rats (150-200 g) are rendered unconscious by CO2 asphyxiation and then euthanized by cervical dislocation. The bladder is removed into warm (37° C.) physiological salt solution (PSS) of the following composition (mM): NaCl, 118.4; KCl, 4.7; CaCl2, 2.5; […]; NaHCO3, 24.9; KH2 PO4, 1.2; glucose, 11.1; EDTA, 0.023; gassed with […]; pH 7.4. The bladder is opened and then cut into strips 1-2 mm in width and 7-10 mm in length. The strips are subsequently suspended in a 10 ml tissue bath under an initial resting tension of 1.5 g. The strips are held in place by two surgical clips one of which is attached to fixed hook while the other is attached to an isometric force transducer. […] The carbachol is then washed out and the tissue allowed to relax to its resting level of activity. Following one further 30 min period of recovery an additional 15 mM KCl are introduced into the tissue bath. […] Contractile activity is measured for each compound or vehicle concentration during the last min of a 30 min challenge. […]

The test system of test [2] is Isolated Rat Aortic Tissue. The test can be described thus: Inhibition of contractions in isolated rat aortic rings (aortic smooth muscle relaxing activity). Details: species or system Sprague-Dawley rats. The settings on record: isolated rat thoracic aorta rings, 25 mM KCl contracture, cumulative addition; read-out: IC50 or (% Inhibition of Aorta Contraction at 30 μM). On the procedure:
Aortic smooth muscle relaxing activity of the compounds of this invention was established in accordance with standard pharmaceutically accepted test procedures in representative compounds as follows:
Sprague-Dawley rats (150-200 g) are rendered unconscious by CO2 asphyxiation and then euthanized by cervical dislocation. The thoracic aorta is removed into warm (37° C.) Krebs-Henseleit solution. The aorta is cleaned of fat and loose adventitia and cut into rings 3-4 mm in width. The rings are subsequently suspended between two stainless steel wire tissue holders in a 10 ml tissue bath. One wire tissue holder is attached to fixed hook while the other is attached to an isometric force transducer. Resting tension is set at 1.0 g. The tissues are allowed to recover for a period of 60 mins prior to beginning the experiment. The tissues are challenged with 25 mM KCl to elicit a contracture. The tissue are then washed repeatedly with fresh Krebs-Henseleit solution over a period of 30 mins and allowed to recover to baseline tension. 25 mM KCl is then introduced into the tissue bath to evoke a contracture that is allowed to stabilize for not less than 45 mins. Increasing concentrations of test compound or vehicle are then added to the tissue bath in a cumulative fashion.
Isometric force developed by the aortic rings is measured using force transducer and recorded on a polygraph. […]

Consider `CNc1c(C2=CC(C)(C)Oc3ccc(C#N)cc32)c(=O)c1=O` [Example 3, 2,2-Dimethyl-4-(2-methylamino-3,4-dioxo-cyclobut-1-enyl)-2H-chromene-6-carbonitrile], for which the IC50 in test [1] was 4100 ± 1800 nM; in test [2], 560 ± 40 nM.

For `CC1(C)C=C(c2c(N)c(=O)c2=O)c2cc(C#N)ccc2O1` [Example 2, 4-(2-Amino-3,4-dioxo-cyclobut-1-enyl)-2,2-dimethyl-2H-chromene-6-carbonitrile], the IC50 in test [1] is 390 ± 40 nM; in test [2], 150 ± 20 nM.
